Biological target: NMDAR
Assay: NMDA receptor [3H]-MK-801 competition radioligand binding in rat forebrain
Conditions: for NMDAR binding affinity pKi (mean ± SEM): [3H]-MK-801 1 nM competition, 1 mM glutamate, 0.1 mM glycine, pH 7.4, 2 h ambient, N = 1-4; for % inhibition of specific [3H]-MK-801 binding: at 10,000 nM
Protocol: Rat forebrains from 7-8 week old Sprague-Dawley rats (BioChemed, USA) were homogenized in a buffer containing 10 mM HEPES and 1 mM EDTA (pH 7.4) using a mechanical homogenizer (Janke-Kunkel Ultra-Turrax T25). A 10 mL volume was used per brain for all steps involving suspension of the brain homogenate tissue. The brain homogenate was then centrifuged (15 minutes at 20,000 RPM and 4 ° C). The supernatant was carefully poured off and the pellet was resuspended in fresh 10 mM HEPES and 1 mM EDTA containing buffer. This process was repeated 5 times. Following the 5th centrifugation, the buffer was replaced with a buffer containing 10 mM HEPES (pH 7.4). The homogenate was then incubated in a water bath at 37 ° C in the dark (covered with foil). Centrifugation was then repeated 3 additional times and after resuspending in the HEPES buffer, the final homogenate was aliquoted and stored at −80 ° C until use. Protein concentration of the homogenate was determined by utilizing the Bradford method using Coomassie protein assay reagent (Sigma, USA) with Bovine Serum albumin (Sigma, USA) as a standard.
At the time of the experiment, the homogenate was diluted to a final concentration of […] in 10 mM HEPES buffer, 1 mM glutamate, and 0.1 mM glycine (pH 7.4) and combined with 1 nM (+)-[3H]-MK-801 (Perkin Elmer NET972250UC), unlabeled competitor compounds at varying concentrations, or 30 uM MK-801 to determine non-specific binding, in a total volume of 1 mL in a 96 well plate. The protein homogenate is always added to the wells last. The plates were covered with aluminum foil, and placed on a mechanical shaker (250 RPM) for 2 h at ambient temperature ([…]). After 2 h, the homogenate was collected by vacuum filtration using a Unifilter-96 Cell Harvester (Perkin Elmer) over presoaked UniFilter-96 GF/C P Microplates (Perkin Elmer) and filters were washed with room temperature 10 mM HEPES buffer (pH 7.4) (3×1 mL). The filter plates were dried overnight in a fume hood. The next day, the bound tritium was measured via liquid scintillation counting with […] MicroScint-O (Perkin Elmer) added per well, using a MicroBeta2 Plate Reader with 6-detectors scintillation counter (Perkin Elmer) at 55% efficiency. IC50 value estimates were determined in GraphPad Prism 9.3.1 using non-linear regression (single site fit) with log-concentration plotted against percent specific binding. Ki values were calculated using the equation of Cheng and Prusoff. […] Experiments were performed in duplicate. N=1-4 per compound.

SMILES	NMDAR binding affinity pKi (mean ± SEM)	% inhibition of specific [3H]-MK-801 binding
NC(c1ccccc1)C1CCCC1 (centres unmarked) [Compound 27, Cyclopentyl(phenyl)methanamine]	< 5.00	32.4%
COc1cccc(C(C)(N)C2CCCC2)c1 (centres unmarked) [Compound 13, 1-cyclopentyl-1-(3-methoxyphenyl)ethan-1-amine]	6.82 ± 0.039	
C=CC(N)(c1ccccc1)C1CCCC1 (centres unmarked) [Compound 10, 1-cyclopentyl-1-phenylprop-2-en-1-amine]	6.05	
CCCC(N)(c1ccccc1)C1CCCC1 (centres unmarked) [Compound 14, 1-cyclopentyl-1-phenylbutan-1-amine]	5.94 ± 0.166	
CC(N)(c1ccc(F)cc1)C1CCCC1 (centres unmarked) [Compound 48, 1-cyclopentyl-1-(4-fluorophenyl)ethan-1-amine]	6.96 ± 0.019	
CCNC(c1ccccc1)C1CCCC1 (centres unmarked) [Compound 32, N-(cyclopentyl(phenyl)methyl)ethanamine]	5.85	
C=CCC(N)c1ccccc1 (centres unmarked) [Compound 30, 1-phenylbut-3-en-1-amine]	< 5.00	43.9%
C#CC(N)(c1ccccc1)C1CCCC1 (centres unmarked) [Compound 53, 1-cyclopentyl-1-phenylprop-2-yn-1-amine]	< 5.00	45.0%
CCCNC(c1ccccc1)C1CCCCC1 (centres unmarked) [Compound 31, N-(cyclohexyl(phenyl)methyl)propan-1-amine]	5.76	
CC(N)(c1cc2ccccc2s1)C1CCCC1 (centres unmarked) [Compound 51, 1-(benzo[b]thiophen-2-yl)-1-cyclopentylethan-1-amine]	< 5.00	34.6%
CC(N)(c1cccc(C(F)(F)F)c1)C1CCCC1 (centres unmarked) [Compound 50, 1-cyclopentyl-1-(3-(trifluoromethyl)phenyl)ethan-1-amine]	5.86 ± 0.11	
COc1ccc(C(C)(N)C2CCCC2)cc1 (centres unmarked) [Compound 49, 1-cyclopentyl-1-(4-methoxyphenyl)ethan-1-amine]	6.49 ± 0.0039	
CC(N)(c1ccccc1)C1CCC1 (centres unmarked) [Compound 47, 1-cyclobutyl-1-phenylethan-1-amine]	6.75 ± 0.016	

Reference: patent US20260347330A1, “N-METHYL-D-ASPARTATE RECEPTOR (NMDAR) ANTAGONISTS AND USES THEREOF” (Bexson Biomedical, Inc., priority 2022, published 2026)
